What was measured:
Type in all cases: in vivo
[1] = system: sedge, umbrella (small-flower umbrella sedge, Cyperus difformis); experiment: Test B flooded paddy test; conditions: Cyperus difformis, 250 g ai/ha, Flood; 0 to 100 scale where 0 is no effect and 100 is complete control; read-out: Sedge, Umbrella plant response rating
In short: (§1)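 Flooding to 3 cm over soil accompanied treatment, which consisted of adding compound to the standing water around 2-leaf plants; depth was then maintained. Visual assessment versus controls followed at 13 to 15 d (scale 0–100, 0 meaning no effect).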

[2] = system: ducksalad (Heteranthera limosa); experiment: Test B flooded paddy test; conditions: Heteranthera limosa, 250 g ai/ha, Flood; 0 to 100 scale where 0 is no effect and 100 is complete control; read-out: Ducksalad plant response rating
In short: as §1

rice (Oryra sativa) = experiment: Test B flooded paddy test; conditions: Oryza sativa, 250 g ai/ha, Flood; 0 to 100 scale where 0 is no effect and 100 is complete control; read-out: Rice plant response rating
In short: as §1

[3] = system: barnyardgrass (Echinochloa crus-galli); experiment: Test B flooded paddy test; conditions: Echinochloa crus-galli, 250 g ai/ha, Flood; 0 to 100 scale where 0 is no effect and 100 is complete control; read-out: Barnyardgrass plant response rating
In short: as §1

[4] = system: pigweed (Amaranthus retroflexus); experiment: Test A preemergence; conditions: Amaranthus retroflexus, pre-emergence, 240 h, 0 to 100 scale where 0 is no effect and 100 is complete control, read-out: Pigweed plant response rating; for pest or weed control at 31 g/ha: 31 g ai/ha, Preemergence; for pest or weed control at 125 g/ha: 125 g ai/ha, preemergence, approx. 10 d
[5] = system: ragweed (common ragweed, Ambrosia elatior); experiment: Test A preemergence; conditions: Ambrosia artemisiifolia, pre-emergence, 240 h, 0 to 100 scale where 0 is no effect and 100 is complete control, read-out: Ragweed plant response rating; for pest or weed control at 31 g/ha: 31 g ai/ha, Preemergence; for pest or weed control at 125 g/ha: 125 g ai/ha, preemergence, approx. 10 d
In short: (§2)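 Seeded soil received test chemicals as a preemergence directed spray, and seedlings at one to two leaves, 2–10 cm tall, received them postemergence, in a non-phytotoxic, surfactant-containing solvent mixture. Pots were held in a greenhouse for approximately 10 d, then rated for injury from 0, no effect, to 100, complete control.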

[6] = system: giant foxtail (Setaria faberii); experiment: Test A preemergence; conditions: Setaria faberi, pre-emergence, 240 h, 0 to 100 scale where 0 is no effect and 100 is complete control, read-out: Foxtail, Giant plant response rating; for pest or weed control at 31 g/ha: 31 g ai/ha, Preemergence; for pest or weed control at 125 g/ha: 125 g ai/ha, preemergence, approx. 10 d
In short: as §2

[7] = system: ryegrass, Italian (Italian ryegrass, Lolium multiflorum); experiment: Test A preemergence; conditions: Lolium multiflorum, pre-emergence, 240 h, 0 to 100 scale where 0 is no effect and 100 is complete control, read-out: Ryegrass, Italian plant response rating; for pest or weed control at 31 g/ha: 31 g ai/ha, Preemergence; for pest or weed control at 125 g/ha: 125 g ai/ha, preemergence, approx. 10 d
In short: as §2

Kochia (Kochia scoparia) [8] = experiment: Test A preemergence; conditions: Bassia scoparia, pre-emergence, 240 h, 0 to 100 scale where 0 is no effect and 100 is complete control, read-out: Kochia plant response rating; for pest or weed control at 31 g/ha: 31 g ai/ha, Preemergence; for pest or weed control at 125 g/ha: 125 g ai/ha, preemergence, approx. 10 d
In short: as §2

[9] = system: barnyardgrass (Echinochloa crus-galli); experiment: Test A preemergence; conditions: Echinochloa crus-galli, pre-emergence, 240 h, 0 to 100 scale where 0 is no effect and 100 is complete control, read-out: Barnyardgrass plant response rating; for pest or weed control at 31 g/ha: 31 g ai/ha, Preemergence; for pest or weed control at 125 g/ha: 125 g ai/ha, preemergence, approx. 10 d
In short: as §2

[10] = system: pigweed (Amaranthus retroflexus); experiment: Test A postemergence; conditions: Amaranthus retroflexus, post-emergence, 240 h; for pest or weed control at 125 g/ha: 125 g ai/ha, postemergence, visual injury on 0 to 100 scale (0 no effect, 100 complete control), approx. 10 d, read-out: Pigweed plant response rating; for pest or weed control at 31 g/ha: Postemergence, 31 g ai/ha, visual injury after approx. 10 d, 0 to 100 scale, 0 no effect, 100 complete control, read-out: Plant response rating, Pigweed
In short: as §2

corn (Zea mays) = experiment: Test A postemergence; conditions: Zea mays, post-emergence, 240 h; for plant injury at 125 g/ha: 125 g ai/ha, postemergence, visual injury on 0 to 100 scale (0 no effect, 100 complete control), approx. 10 d, read-out: Corn plant response rating; for Corn plant response rating (crop injury, 0 = no effect, 100 = complete kill) at 31 g/ha: Postemergence, 31 g ai/ha, visual injury after approx. 10 d, 0 to 100 scale, 100 complete control
In short: as §2

[11] = system: ragweed (common ragweed, Ambrosia elatior); experiment: Test A postemergence; conditions: Ambrosia artemisiifolia, post-emergence, 240 h; for pest or weed control at 125 g/ha: 125 g ai/ha, postemergence, visual injury on 0 to 100 scale (0 no effect, 100 complete control), approx. 10 d, read-out: Ragweed plant response rating; for pest or weed control at 31 g/ha: Postemergence, 31 g ai/ha, visual injury after approx. 10 d, 0 to 100 scale, 0 no effect, 100 complete control, read-out: Plant response rating, Ragweed
In short: as §2

[12] = system: wheat (Triticum aestivum); experiment: Test A postemergence; conditions: Triticum aestivum, post-emergence, 240 h; for plant injury at 125 g/ha: 125 g ai/ha, postemergence, visual injury on 0 to 100 scale (0 no effect, 100 complete control), approx. 10 d, read-out: Wheat plant response rating; for plant injury at 31 g/ha: Postemergence, 31 g ai/ha, visual injury after approx. 10 d, 0 to 100 scale, 0 no effect, 100 complete control, read-out: Plant response rating, Wheat
In short: as §2

[13] = system: giant foxtail (Setaria faberii); experiment: Test A postemergence; conditions: Setaria faberi, post-emergence, 240 h; for pest or weed control at 125 g/ha: 125 g ai/ha, postemergence, visual injury on 0 to 100 scale (0 no effect, 100 complete control), approx. 10 d, read-out: Foxtail, Giant plant response rating; for pest or weed control at 31 g/ha: Postemergence, 31 g ai/ha, visual injury after approx. 10 d, 0 to 100 scale, 0 no effect, 100 complete control, read-out: Plant response rating, Foxtail, Giant
In short: as §2

[14] = system: ryegrass, Italian (Italian ryegrass, Lolium multiflorum); experiment: Test A postemergence; conditions: Lolium multiflorum, post-emergence, 240 h; for pest or weed control at 125 g/ha: 125 g ai/ha, postemergence, visual injury on 0 to 100 scale (0 no effect, 100 complete control), approx. 10 d, read-out: Ryegrass, Italian plant response rating; for pest or weed control at 31 g/ha: Postemergence, 31 g ai/ha, visual injury after approx. 10 d, 0 to 100 scale, 0 no effect, 100 complete control, read-out: Plant response rating, Ryegrass, Italian
In short: as §2

Kochia (Kochia scoparia) [15] = experiment: Test A postemergence; conditions: Bassia scoparia, post-emergence, 240 h; for pest or weed control at 125 g/ha: 125 g ai/ha, postemergence, visual injury on 0 to 100 scale (0 no effect, 100 complete control), approx. 10 d, read-out: Kochia plant response rating; for pest or weed control at 31 g/ha: Postemergence, 31 g ai/ha, visual injury after approx. 10 d, 0 to 100 scale, 0 no effect, 100 complete control, read-out: Plant response rating, Kochia
In short: as §2

[16] = system: barnyardgrass (Echinochloa crus-galli); experiment: Test A postemergence; conditions: Echinochloa crus-galli, post-emergence, 240 h; for pest or weed control at 125 g/ha: 125 g ai/ha, postemergence, visual injury on 0 to 100 scale (0 no effect, 100 complete control), approx. 10 d, read-out: Barnyardgrass plant response rating; for pest or weed control at 31 g/ha: Postemergence, 31 g ai/ha, visual injury after approx. 10 d, 0 to 100 scale, 0 no effect, 100 complete control, read-out: Plant response rating, Barnyardgrass
In short: as §2

[17] = system: blackgrass (Alopecurus myosuroides); experiment: Test A postemergence; conditions: Alopecurus myosuroides, post-emergence, 240 h; for pest or weed control at 125 g/ha: 125 g ai/ha, postemergence, visual injury on 0 to 100 scale (0 no effect, 100 complete control), approx. 10 d, read-out: Blackgrass plant response rating; for pest or weed control at 31 g/ha: Postemergence, 31 g ai/ha, visual injury after approx. 10 d, 0 to 100 scale, 0 no effect, 100 complete control, read-out: Plant response rating, Blackgrass
In short: as §2

[18] = system: Galium (catchweed bedstraw, Galium aparine); experiment: Test A postemergence; conditions: Galium, post-emergence, 240 h; for pest or weed control at 125 g/ha: 125 g ai/ha, postemergence, visual injury on 0 to 100 scale (0 no effect, 100 complete control), approx. 10 d, read-out: Galium plant response rating; for pest or weed control at 31 g/ha: Postemergence, 31 g ai/ha, visual injury after approx. 10 d, 0 to 100 scale, 0 no effect, 100 complete control, read-out: Plant response rating, Galium
In short: as §2

CSc1ccccc1NC(=O)[C@H]1C(=O)N(C)C[C@@H]1c1cc(C(F)F)cs1 [Compound 1088]
75%: pest or weed control at 250 g/ha [2]
20%: pest or weed control at 125 g/ha (Kochia (Kochia scoparia) [8]) | pest or weed control at 125 g/ha [13] | pest or weed control at 31 g/ha [18]
0%: pest or weed control at 250 g/ha [1] | pest or weed control at 250 g/ha (rice (Oryra sativa)) | pest or weed control at 31 g/ha [4] | pest or weed control at 125 g/ha [4] | pest or weed control at 31 g/ha [5] | pest or weed control at 125 g/ha [5] | pest or weed control at 31 g/ha [6] | pest or weed control at 31 g/ha [7] | pest or weed control at 125 g/ha [7] | pest or weed control at 31 g/ha [9] | pest or weed control at 125 g/ha [10] | pest or weed control at 31 g/ha [10] | plant injury at 125 g/ha (corn (Zea mays)) | Corn plant response rating (crop injury, 0 = no effect, 100 = complete kill) at 31 g/ha (corn (Zea mays)) | pest or weed control at 125 g/ha [11] | pest or weed control at 31 g/ha [11] | plant injury at 125 g/ha [12] | plant injury at 31 g/ha [12] | pest or weed control at 31 g/ha [13] | pest or weed control at 125 g/ha [14] | pest or weed control at 31 g/ha [14] | pest or weed control at 125 g/ha (Kochia (Kochia scoparia) [15]) | pest or weed control at 31 g/ha (Kochia (Kochia scoparia) [15]) | pest or weed control at 31 g/ha [16] | pest or weed control at 125 g/ha [17] | pest or weed control at 31 g/ha [17]
100%: pest or weed control at 125 g/ha [6]
30%: pest or weed control at 250 g/ha [3] | pest or weed control at 31 g/ha (Kochia (Kochia scoparia) [8]) | pest or weed control at 125 g/ha [9] | pest or weed control at 125 g/ha [16] | pest or weed control at 125 g/ha [18]

CN1C[C@H](c2cc(C(F)F)cs2)[C@@H](C(=O)Nc2cnccc2C(F)(F)F)C1=O [Compound 1091]
50%: pest or weed control at 31 g/ha [6]
0%: pest or weed control at 250 g/ha [1] | pest or weed control at 250 g/ha [2] | pest or weed control at 250 g/ha (rice (Oryra sativa)) | pest or weed control at 250 g/ha [3] | pest or weed control at 125 g/ha [4] | pest or weed control at 125 g/ha [5] | pest or weed control at 31 g/ha [7] | pest or weed control at 125 g/ha [7] | pest or weed control at 31 g/ha [9] | pest or weed control at 125 g/ha [9] | pest or weed control at 31 g/ha [10] | plant injury at 125 g/ha (corn (Zea mays)) | Corn plant response rating (crop injury, 0 = no effect, 100 = complete kill) at 31 g/ha (corn (Zea mays)) | pest or weed control at 125 g/ha [11] | pest or weed control at 31 g/ha [11] | plant injury at 125 g/ha [12] | plant injury at 31 g/ha [12] | pest or weed control at 125 g/ha [13] | pest or weed control at 31 g/ha [13] | pest or weed control at 125 g/ha [14] | pest or weed control at 31 g/ha [14] | pest or weed control at 125 g/ha (Kochia (Kochia scoparia) [15]) | pest or weed control at 31 g/ha (Kochia (Kochia scoparia) [15]) | pest or weed control at 125 g/ha [16] | pest or weed control at 31 g/ha [16] | pest or weed control at 125 g/ha [17] | pest or weed control at 31 g/ha [17] | pest or weed control at 125 g/ha [18] | pest or weed control at 31 g/ha [18]
100%: pest or weed control at 31 g/ha [5] | pest or weed control at 125 g/ha [6]
30%: pest or weed control at 125 g/ha [10]
10%: pest or weed control at 31 g/ha [4]
40%: pest or weed control at 125 g/ha (Kochia (Kochia scoparia) [8])
20%: pest or weed control at 31 g/ha (Kochia (Kochia scoparia) [8])

— patent publication US12077503B2, “Substituted cyclic amides and their use as herbicides” (FMC CORPORATION, priority 2015, dated 2024)
